Experimental data published in patent US11459306B2, “Compounds, compositions, and methods for treating T-cell acute lymphoblastic leukemia” (The Trustees of Columbia University in the City of New York, priority 2017, dated 2022).

Experiments:
[1] = system: mouse PTEN null/NOTCH activated T-ALL cell line; assay: Gene set enrichment analysis of murine T-ALL disease signature after drug treatment; format: cell-based; settings: GSEA of T-ALL disease signature
Method: This was also accomplished by generating gene expression signatures to assess the effects of drug treatment. Global gene expression profiles were obtained in triplicate using a mouse PTEN null/NOTCH activated T-ALL cell line driven by over expression of the transcription factor LMO2. […] Tumor cells were cultured in the presence of CAL-130 (2.5 μM) or the gamma-secretase inhibitor (GSI) Compound E (1 μM). Compound E blocks the activity of NOTCH1, which is also believed to support T-ALL tumor formation, proliferation, and survival. Drug treated cells were harvested at time points known to affect the expression of the proto-oncogene cMyc (12 hours and 48 hours, respectively), a master regulator of cell growth, metabolism and survival. A Venn diagram was created to illustrate the overlap in genes altered by either PI3Kγ/δ blockade (red circle) or GSI (green circle) using a false discovery rate (FDR) of 0.0005 as cut off (FIG. 1A). Of note, ten-fold more genes were affected following PI3Kγ/δ blockade, including the majority (˜62%) of genes altered by GSI monotherapy, a highly significant finding (Fisher's exact test, P<2.2×10^−16).
A murine T-ALL disease signature was further defined by ranking all genes based on their differential expression in T-ALL samples compared to wild type murine thymocytes. […]

[2] = system: human primary T-ALL cells; assay: Akt phosphorylation and pro-apoptotic pathways in human primary T-ALL cells; format: cell-based
[3] = system: T-ALL; assay: Tumor burden and survival of mice with T-ALL; format: in vivo
[4] = Pharmacokinetics relative to CAL-130; format: in vivo
[5] = molecular target: T1, PIK3CB (PI3Kβ) (Homo sapiens, UniProt P42338); assay: KINOMEscan competition binding assay (DiscoverX); settings: DiscoveRx gene symbol PIK3CB (PI3Kβ)
T1 construct: purchased DiscoverX (KINOMEscan); host or cells: E. coli BL21-derived host (T7 phage) or HEK-293
T1 sequence (P42338 whole entry): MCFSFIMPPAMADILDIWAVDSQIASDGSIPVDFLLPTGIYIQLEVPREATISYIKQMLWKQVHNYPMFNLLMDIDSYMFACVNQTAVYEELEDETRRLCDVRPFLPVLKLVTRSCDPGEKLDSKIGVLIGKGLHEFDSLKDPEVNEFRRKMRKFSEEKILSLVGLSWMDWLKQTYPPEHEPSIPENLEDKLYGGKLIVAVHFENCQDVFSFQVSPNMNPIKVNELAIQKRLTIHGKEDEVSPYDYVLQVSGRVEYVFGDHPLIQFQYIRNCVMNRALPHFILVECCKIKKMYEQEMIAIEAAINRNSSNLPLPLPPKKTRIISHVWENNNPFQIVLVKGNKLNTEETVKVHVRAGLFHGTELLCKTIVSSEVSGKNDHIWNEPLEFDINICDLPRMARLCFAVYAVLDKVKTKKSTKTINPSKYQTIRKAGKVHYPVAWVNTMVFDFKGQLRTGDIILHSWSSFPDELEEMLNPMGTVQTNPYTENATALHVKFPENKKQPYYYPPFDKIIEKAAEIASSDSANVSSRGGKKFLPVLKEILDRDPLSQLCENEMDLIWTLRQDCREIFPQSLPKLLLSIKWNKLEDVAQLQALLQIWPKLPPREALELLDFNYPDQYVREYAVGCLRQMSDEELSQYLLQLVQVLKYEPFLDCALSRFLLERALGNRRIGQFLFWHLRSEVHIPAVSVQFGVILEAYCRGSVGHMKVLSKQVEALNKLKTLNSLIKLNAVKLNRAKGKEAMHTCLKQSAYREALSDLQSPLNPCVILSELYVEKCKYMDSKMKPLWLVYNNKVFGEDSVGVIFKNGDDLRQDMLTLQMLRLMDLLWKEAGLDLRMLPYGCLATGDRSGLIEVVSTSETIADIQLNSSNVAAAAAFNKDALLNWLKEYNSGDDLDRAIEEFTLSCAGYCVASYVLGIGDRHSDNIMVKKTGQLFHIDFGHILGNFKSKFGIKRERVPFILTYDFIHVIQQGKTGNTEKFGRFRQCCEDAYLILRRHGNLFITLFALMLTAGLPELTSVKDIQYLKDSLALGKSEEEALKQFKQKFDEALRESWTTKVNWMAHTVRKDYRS
Method: (§1) The compounds were tested using KINOMEscan™ (DiscoverX), which is based on a competition binding assay that quantitatively measures the ability of a compound to compete with an immobilized, active-site directed ligand. The assay is performed by combining three components: DNA-tagged kinase; immobilized ligand; and a test compound. The ability of the test compound to compete with the immobilized ligand is measured via quantitative PCR of the DNA tag.
(§2) For most assays, kinase-tagged T7 phage strains were prepared in an E. coli host derived from the BL21 strain. E. coli were grown to log-phase and infected with T7 phage and incubated with shaking at 32° C. until lysis. The lysates were centrifuged and filtered to remove cell debris. The remaining kinases were produced in HEK-293 cells and subsequently tagged with DNA for qPCR detection. Streptavidin-coated magnetic beads were treated with biotinylated small molecule ligands for 30 minutes at room temperature to generate affinity resins for kinase assays. The liganded beads were blocked with excess biotin and washed with blocking buffer (SeaBlock (Pierce), 1% BSA, 0.05% Tween 20, 1 mM DTT) to remove unbound ligand and to reduce non-specific binding. Binding reactions were assembled by combining kinases, liganded affinity beads, and test compounds in 1× binding buffer (20% SeaBlock, 0.17×PBS, 0.05% Tween 20, 6 mM DTT). Test compounds were prepared as 111× stocks in 100% DMSO. Kds were determined using an 11-point 3-fold compound dilution series with three DMSO control points. All compounds for Kd measurements are distributed by acoustic transfer (non-contact dispensing) in 100% DMSO. The compounds were then diluted directly into the assays such that the final concentration of DMSO was 0.9%. All reactions performed in polypropylene 384-well plate. Each was a final volume of 0.02 ml. The assay plates were incubated at room temperature with shaking for 1 hour and the affinity beads were washed with wash buffer (1×PBS, 0.05% Tween 20). The beads were then re-suspended in elution buffer (1×PBS, 0.05% Tween 20, 0.5 μM non-biotinylated affinity ligand) and incubated at room temperature with shaking for 30 minutes. The kinase concentration in the eluates was measured by qPCR.
(§3) An 11-point 3-fold serial dilution of each test compound was prepared in 100% DMSO at 100× final test concentration and subsequently diluted to 1× in the assay (final DMSO concentration=1%). Most Kds were determined using a compound top concentration=30,000 nM. If the initial Kd determined was <0.5 nM (the lowest concentration tested), the measurement was repeated with a serial dilution starting at a lower top concentration.
(§4) Binding constants (Kds) were calculated with a standard dose-response curve using the Hill equation: […]
(§5) The Hill Slope was set to −1. Curves were fitted using a non-linear least square fit with the Levenberg-Marquardt algorithm.

[6] = molecular target: T2, PIK3CA (PI3Kα) (Homo sapiens, UniProt P42336); assay: KINOMEscan competition binding assay (DiscoverX); settings: DiscoveRx gene symbol PIK3CA (PI3Kα)
T2 construct: purchased DiscoverX (KINOMEscan); host or cells: E. coli BL21-derived host (T7 phage) or HEK-293
T2 sequence (P42336 whole entry): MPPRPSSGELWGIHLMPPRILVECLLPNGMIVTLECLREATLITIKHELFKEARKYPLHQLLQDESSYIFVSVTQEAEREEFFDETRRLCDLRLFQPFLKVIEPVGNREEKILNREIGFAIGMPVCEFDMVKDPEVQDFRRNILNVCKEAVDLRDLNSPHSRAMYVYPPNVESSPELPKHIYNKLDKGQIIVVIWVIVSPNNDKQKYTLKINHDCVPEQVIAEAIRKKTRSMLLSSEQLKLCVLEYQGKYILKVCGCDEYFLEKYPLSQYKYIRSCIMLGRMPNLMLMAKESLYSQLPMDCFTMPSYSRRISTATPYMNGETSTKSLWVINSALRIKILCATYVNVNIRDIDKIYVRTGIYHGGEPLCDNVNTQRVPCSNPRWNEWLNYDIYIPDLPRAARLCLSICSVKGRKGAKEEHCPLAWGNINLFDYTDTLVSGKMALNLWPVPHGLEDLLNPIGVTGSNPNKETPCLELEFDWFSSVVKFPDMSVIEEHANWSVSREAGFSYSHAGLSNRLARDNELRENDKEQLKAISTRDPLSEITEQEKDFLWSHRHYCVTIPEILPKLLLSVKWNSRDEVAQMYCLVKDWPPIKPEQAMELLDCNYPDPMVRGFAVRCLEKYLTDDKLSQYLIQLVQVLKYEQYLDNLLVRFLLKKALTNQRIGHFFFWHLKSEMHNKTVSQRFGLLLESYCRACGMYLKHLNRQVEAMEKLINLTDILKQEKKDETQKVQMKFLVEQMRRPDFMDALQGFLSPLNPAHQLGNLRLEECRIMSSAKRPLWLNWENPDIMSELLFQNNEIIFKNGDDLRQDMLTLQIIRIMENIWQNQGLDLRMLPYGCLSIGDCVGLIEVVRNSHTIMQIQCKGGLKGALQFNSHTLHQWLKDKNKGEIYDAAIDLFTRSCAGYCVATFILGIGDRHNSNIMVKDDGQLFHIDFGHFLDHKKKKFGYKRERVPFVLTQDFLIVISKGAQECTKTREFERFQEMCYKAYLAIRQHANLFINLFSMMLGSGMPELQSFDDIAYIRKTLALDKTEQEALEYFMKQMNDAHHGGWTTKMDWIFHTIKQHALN
Method: as §1, §2, §3, §4, §5

[7] = molecular target: T3, PIK3CD (Homo sapiens, UniProt O00329); assay: KINOMEscan competition binding assay (DiscoverX); settings: DiscoveRx gene symbol PIK3CD (b251 prints: PI3Kγ)
T3 construct: purchased DiscoverX (KINOMEscan); host or cells: E. coli BL21-derived host (T7 phage) or HEK-293
T3 sequence (O00329 1-1044): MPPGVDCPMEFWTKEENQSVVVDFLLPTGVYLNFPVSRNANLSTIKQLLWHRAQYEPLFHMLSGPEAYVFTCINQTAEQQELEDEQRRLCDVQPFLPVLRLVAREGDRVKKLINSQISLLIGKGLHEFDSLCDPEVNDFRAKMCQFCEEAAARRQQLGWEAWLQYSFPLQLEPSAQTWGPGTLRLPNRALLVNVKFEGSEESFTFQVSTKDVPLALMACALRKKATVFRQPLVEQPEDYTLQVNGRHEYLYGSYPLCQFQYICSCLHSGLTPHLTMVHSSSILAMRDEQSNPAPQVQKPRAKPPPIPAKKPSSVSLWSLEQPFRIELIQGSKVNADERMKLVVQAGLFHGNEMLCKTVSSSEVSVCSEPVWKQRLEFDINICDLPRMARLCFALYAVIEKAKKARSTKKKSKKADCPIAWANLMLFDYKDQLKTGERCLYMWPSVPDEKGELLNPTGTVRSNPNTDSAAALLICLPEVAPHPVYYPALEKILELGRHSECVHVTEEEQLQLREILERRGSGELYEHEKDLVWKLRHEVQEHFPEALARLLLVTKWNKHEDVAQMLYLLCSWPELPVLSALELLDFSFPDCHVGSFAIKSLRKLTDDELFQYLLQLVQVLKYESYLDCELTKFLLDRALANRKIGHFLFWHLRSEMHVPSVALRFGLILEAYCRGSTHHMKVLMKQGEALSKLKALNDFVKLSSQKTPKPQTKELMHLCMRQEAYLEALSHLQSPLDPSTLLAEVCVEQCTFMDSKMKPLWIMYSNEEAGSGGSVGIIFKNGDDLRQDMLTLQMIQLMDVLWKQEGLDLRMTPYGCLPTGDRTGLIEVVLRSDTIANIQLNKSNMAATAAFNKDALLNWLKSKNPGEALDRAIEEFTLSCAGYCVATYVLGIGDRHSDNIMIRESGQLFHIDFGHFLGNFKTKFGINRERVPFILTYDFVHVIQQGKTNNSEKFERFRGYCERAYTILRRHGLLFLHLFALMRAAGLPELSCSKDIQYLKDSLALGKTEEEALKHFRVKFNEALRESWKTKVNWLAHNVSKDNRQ
Method: as §1, §2, §3, §4, §5

[8] = molecular target: T4, PIK3CG (Homo sapiens, UniProt P48736); assay: KINOMEscan competition binding assay (DiscoverX); settings: DiscoveRx gene symbol PIK3CG (b251 prints: PI3Kδ)
T4 construct: purchased DiscoverX (KINOMEscan); host or cells: E. coli BL21-derived host (T7 phage) or HEK-293
T4 sequence (P48736 whole entry): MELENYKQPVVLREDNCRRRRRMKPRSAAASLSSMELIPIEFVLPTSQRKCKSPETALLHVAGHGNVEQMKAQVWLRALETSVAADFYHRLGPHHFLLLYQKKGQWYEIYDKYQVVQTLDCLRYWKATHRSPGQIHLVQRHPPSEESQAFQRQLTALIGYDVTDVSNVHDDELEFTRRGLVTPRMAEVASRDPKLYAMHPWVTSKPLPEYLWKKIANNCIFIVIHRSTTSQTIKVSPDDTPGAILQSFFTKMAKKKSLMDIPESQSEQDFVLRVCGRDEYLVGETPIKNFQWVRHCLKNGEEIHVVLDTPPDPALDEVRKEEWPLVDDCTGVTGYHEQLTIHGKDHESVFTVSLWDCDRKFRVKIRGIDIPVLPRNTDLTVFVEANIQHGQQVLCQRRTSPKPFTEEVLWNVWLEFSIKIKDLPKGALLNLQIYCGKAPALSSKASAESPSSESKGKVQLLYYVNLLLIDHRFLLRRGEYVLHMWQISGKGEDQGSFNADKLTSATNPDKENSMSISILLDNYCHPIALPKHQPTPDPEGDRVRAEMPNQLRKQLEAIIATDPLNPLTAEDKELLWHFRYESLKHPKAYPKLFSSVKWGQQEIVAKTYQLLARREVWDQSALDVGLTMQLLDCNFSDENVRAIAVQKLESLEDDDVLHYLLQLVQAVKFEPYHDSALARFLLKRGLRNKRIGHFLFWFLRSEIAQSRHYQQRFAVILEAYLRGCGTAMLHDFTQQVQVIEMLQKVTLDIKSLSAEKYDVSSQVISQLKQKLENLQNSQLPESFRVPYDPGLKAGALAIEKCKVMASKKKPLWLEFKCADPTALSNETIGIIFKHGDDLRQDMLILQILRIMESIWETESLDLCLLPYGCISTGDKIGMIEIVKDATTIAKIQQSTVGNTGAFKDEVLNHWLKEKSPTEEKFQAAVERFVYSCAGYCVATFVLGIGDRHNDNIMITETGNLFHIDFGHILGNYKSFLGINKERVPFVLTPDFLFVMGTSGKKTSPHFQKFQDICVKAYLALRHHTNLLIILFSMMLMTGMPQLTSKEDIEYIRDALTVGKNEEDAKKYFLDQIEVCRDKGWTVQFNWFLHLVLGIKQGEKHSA
Method: as §1, §2, §3, §4, §5

[9] = system: T-ALL cell line; assay: T-ALL cell viability / cell death; format: cell-based, murine
Method: Compounds DWL-PI3K-1, DWL-PI3K-2, DWL-PI3K-3, DWL-PI3K-4, DWL-PI3K-5, DWL-PI3K-6 and DWL-PI3K-7, and reference compounds CAL-130, tenalisib, duvelisib were evaluated for efficacy (cell viability by measuring ATP (CellTiter-Glo) or propidium iodide (PI) uptake) against a number of cancer cells, including LMO-2-007, OCI-LY-10, HH, H9, PF382 and CCRF-CEM.

[10] = system: murine PTEN null T-ALL cell line lacking both p110γ and p110δ catalytic domains; assay: Killing of T-ALL cell line lacking p110γ and p110δ; format: cell-based; settings: selectivity control line
Text: Compounds described herein also appear to be selective for p110 catalytic domains of PI3Kγ and PI3Kδ as treatment, for example, of a T-ALL cell line lacking these two p110 isoforms results in limited cell killing.

Structure (SMILES) | pharmacokinetics [4] | Kd [5] [nM] | Kd [6] [nM] | Kd [7] [nM] | Kd [8] [nM] | normalized enrichment score (NES) ([1]; 2.5 μM, 12 hours) | Akt phosphorylation and pro-apoptotic pathways [2] | effect on tumor burden and survival [3] | mean survival ([3]; 10 mg/kg tid) [days] | normalized enrichment score (NES) ([1]; 1 μM, 48 hours) | amount needed relative to CAL-130 to achieve a similar reduction in tumor cell survival [9] | cell killing of T-ALL cell line lacking p110γ and p110δ [10] | efficacy in inducing T-ALL cell death relative to CAL-130 ([9]; cultured T-ALL cells) | mean survival ([3]; 30 mg/kg tid) [days]
Cc1ccccc1-n1c([C@H](C)Nc2nc(N)nc3[nH]cnc23)nc2cccc(C)c2c1=O [CAL-130] | – | – | – | – | – | −5.8 | abolished Akt phosphorylation and activated pro-apoptotic pathways | significantly reduced tumor burden and prolonged survival of diseased mice | 45 | – | – | – | – | –
C[C@H](NC(=O)Cc1cc(F)cc(F)c1)C(=O)N[C@H]1N=C(c2ccccc2)c2ccccc2N(C)C1=O [Compound E] | – | – | – | – | – | – | – | – | – | −2.6 | – | – | – | –
C[C@H](Nc1nc(N)nc(N)c1C#N)c1cc2cccc(Cl)c2c(=O)n1-c1cc(F)cc(F)c1 [DWL-PI3K-5, (S)-2,4-diamino-6-(1-(8-chloro-2-(3,5-difluorophenyl)-1-oxo-1,2-dihydroisoquinolin-3-yl)ethylamino)pyrimidine-5-carbonitrile] | better pharmacokinetics | 1.4 | 30 | 0.12 | 0.38 | – | – | – | – | – | about 10 fold less | – | – | –
[2H]c1c([2H])c([2H])c(-n2c([C@H](C)Nc3nc(N)nc(N)c3C#N)cc3cccc(Cl)c3c2=O)c([2H])c1[2H] [DWL-PI3K-7, (S)-2,4-diamino-6-((1-(8-chloro-1-oxo-2-(phenyl-d5)-1,2-dihydroisoquinolin-3-yl)ethyl)amino)pyrimidine-5-carbonitrile] | better pharmacokinetics | 0.3 | 6.1 | 0.12 | 0.17 | – | – | – | – | – | about 10 fold less | limited killing effect | – | –
C[C@H](Nc1ncnc2nc[nH]c12)c1cc2cccc(Cl)c2c(=O)n1-c1ccccc1 [IPI-145] | – | – | – | – | – | – | – | not as effective in reducing tumor burden or in prolonging overall survival | – | – | – | – | – | 18

Now from value to compound, other results behind:

pharmacokinetics [4] | Kd [5] [nM] | Kd [6] [nM] | Kd [7] [nM] | Kd [8] [nM] | Structure (SMILES) | normalized enrichment score (NES) ([1]; 2.5 μM, 12 hours) | Akt phosphorylation and pro-apoptotic pathways [2] | effect on tumor burden and survival [3] | mean survival ([3]; 10 mg/kg tid) [days] | normalized enrichment score (NES) ([1]; 1 μM, 48 hours) | amount needed relative to CAL-130 to achieve a similar reduction in tumor cell survival [9] | cell killing of T-ALL cell line lacking p110γ and p110δ [10] | efficacy in inducing T-ALL cell death relative to CAL-130 ([9]; cultured T-ALL cells) | mean survival ([3]; 30 mg/kg tid) [days]
better pharmacokinetics | 0.92 | 20 | 0.39 | 0.2 | Cc1ccccc1-n1c([C@H](C)Nc2nc(N)nc(N)c2C#N)nc2cccc(C)c2c1=O [DWL-PI3K-1, (S)-2,4-diamino-6-((1-(5-methyl-4-oxo-3-(o-tolyl)-3,4-dihydroquinazolin-2-yl)ethyl)amino)pyrimidine-5-carbonitrile] | – | – | – | – | – | about 10 fold less | – | – | –
better pharmacokinetics | 4.3 | 53 | 0.62 | 0.62 | Cc1ccccc1-n1c([C@H](C)Nc2nc(N)nc(C)c2C#N)nc2cccc(C)c2c1=O [DWL-PI3K-2, (S)-2-amino-4-methyl-6-((1-(5-methyl-4-oxo-3-(o-tolyl)-3,4-dihydroquinazolin-2-yl)ethyl)amino)pyrimidine-5-carbonitrile] | – | – | – | – | – | about 10 fold less | – | – | –
better pharmacokinetics | 0.15 | 2.2 | 0.042 | 0.089 | Cc1nc(N)nc(N[C@@H](C)c2cc3cccc(Cl)c3c(=O)n2-c2ccccc2)c1C#N [DWL-PI3K-4, (S)-2-amino-4-((1-(8-chloro-1-oxo-2-phenyl-1,2-dihydroisoquinolin-3-yl)ethyl)amino)-6-methylpyrimidine-5-carbonitrile] | – | – | – | – | – | about 10 fold less | limited killing | greater efficacy than CAL-130 | –
better pharmacokinetics | 0.46 | 10 | 0.11 | 0.27 | C[C@H](Nc1nc(N)nc(N)c1C#N)c1cc2cccc(Cl)c2c(=O)n1-c1cccc(F)c1 [DWL-PI3K-6, (S)-2,4-diamino-6-((1-(8-chloro-2-(3-fluorophenyl)-1-oxo-1,2-dihydroisoquinolin-3-yl)ethyl)amino)pyrimidine-5-carbonitrile] | – | – | – | – | – | about 10 fold less | – | – | –
